Test results as given in US20090018111A1, “Novel Antimicrobial Medicament” (priority 2004, published 2009).

How the values were obtained:
[1] = test system: C. freundii GN346; assay: Sensitivity test (agar dilution); assay type: cell-based, Citrobacter freundii
Procedure: (§1) The antibacterial activities were tested against various 18 bacteria (27 standard strains) which are representative bacteria caused clinically infectious disease (Staphylococcus aureus 3 strains, Staphylococcus epidermidis 1 strain, Micrococcus luteus 1 strain, Streptococcus pyogenes 1 strain, Enterococcus faecalis 1 strain, Enterococcus faecium 1 strain, Bacillus subtilis 1 strain, Escherichia coli 3 strains, Klebsiella pneumoniae 1 strain, Proteus mirabilis 1 strain, Proteus vulgaris 2 strains, Pseudomonas aeruginosa 3 strains, Serratia marcescens 2 strains, Enterobacter aerogenes 1 strain, Stenotrophomonas maltophilia 1 strain, Enterobacter cloacae 1 strain, Citrobacter freundii 1 strain, Moraxella catarrhalis 2 strains).
(§2) According to the standard method of Japan Chemotherapeutic Society (Chemotherapy, vol. […], p 76-79 (1981)) the test was carried out using the agar dilution method. After dissolving test samples in distilled water, agar medium containing the test samples was prepared in such a manner that the final concentration became twice serial dilution by pouring serially diluted combination drug solution or a single drug solution into agar medium. As agar medium was used Mueller Hinton Agar medium (MHA). Then, each strain was cultivated over night at 37° C. in an incubator and suspended in buffered saline solution with gelatin (BSG) in the concentration of about 10^6 CFU/ml. The suspension (about 5 μl) containing test strains was inoculated to the medium containing the test samples by Micro Planter.
(§3) When the sample is subjected to sensitivity test, this mixed solution was diluted by twice serial dilution method.
(§4) Furthermore, when the drug is solely used, each test sample was used as it is, and diluted by twice serial dilution method from the maximum concentration to the minimum concentration.
(§5) FIC index based on MIC value was calculated. […] Namely, when FIC index calculated by the following formula is equal or less than 1, the enhanced effect of the combination drug in said ratio is considered as positive. When FIC index is over 1, the enhanced effect of the combination drug in said ratio is considered as negative.
(§6) Formula of FIC index: FIC index=(MIC of Drug A in combination/MIC of Drug A alone)+(MIC of Drug B in combination/MIC of Drug B alone) N.C. in tables means being not calculated.

[2] = test system: S. marcescens X 100; assay: Sensitivity test (agar dilution); assay type: cell-based, Serratia marcescens
Procedure: as §1, §2, §3, §4, §5, §6

[3] = test system: S. marcescens GN6473; assay: Sensitivity test (agar dilution); assay type: cell-based, Serratia marcescens
Procedure: as §1, §2, §3, §4, §5, §6

[4] = test system: M. catarrhalis ATCC8176; assay: Sensitivity test (agar dilution); assay type: cell-based, Moraxella catarrhalis
Procedure: as §1, §2, §3, §4, §5, §6

[5] = test system: M. catarrhalis ATCC25238; assay: Sensitivity test (agar dilution); assay type: cell-based, Moraxella catarrhalis
Procedure: as §1, §2, §3, §4, §5, §6

[6] = test system: Str. pyogenes Cook; assay: Sensitivity test (agar dilution); assay type: cell-based, Streptococcus pyogenes
Procedure: as §1, §2, §3, §4, §5, §6

[7] = test system: E. aerogenes ATCC13048; assay: Sensitivity test (agar dilution); assay type: cell-based, Enterobacter aerogenes
Procedure: as §1, §2, §3, §4, §5, §6

[8] = test system: P. mirabiris GN2425; assay: Sensitivity test (agar dilution); assay type: cell-based, Proteus mirabilis
Procedure: as §1, §2, §3, §4, §5, §6

[9] = test system: S. maltophilia IID1275; assay: Sensitivity test (agar dilution); assay type: cell-based, Stenotrophomonas maltophilia
Procedure: as §1, §2, §3, §4, §5, §6

[10] = test system: E. cloacae GN7471; assay: Sensitivity test (agar dilution); assay type: cell-based, Enterobacter cloacae
Procedure: as §1, §2, §3, §4, §5, §6

[11] = test system: S. aureus MS94088 (hetero-MRSA); assay: Sensitivity test (agar dilution); assay type: cell-based, Staphylococcus aureus
Procedure: as §1, §2, §3, §4, §5, §6

[12] = test system: S. aureus 209P; assay: Sensitivity test (agar dilution); assay type: cell-based, Staphylococcus aureus
Procedure: as §1, §2, §3, §4, §5, §6

[13] = test system: S. aureus SP-7928 (homo-MRSA); assay: Sensitivity test (agar dilution); assay type: cell-based, Staphylococcus aureus
Procedure: as §1, §2, §3, §4, §5, §6

[14] = test system: E. coli ML1410; assay: Sensitivity test (agar dilution); assay type: cell-based, Escherichia coli; conditions: alone
Procedure: as §1, §2, §3, §4, §5, §6

[15] = test system: E. coli NIHJ JC-2; assay: Sensitivity test (agar dilution); assay type: cell-based, Escherichia coli
Procedure: as §1, §2, §3, §4, §5, §6

[16] = test system: P. vulgaris GN7919; assay: Sensitivity test (agar dilution); assay type: cell-based, Proteus vulgaris
Procedure: as §1, §2, §3, §4, §5, §6

[17] = test system: P. vurgalis OX-19; assay: Sensitivity test (agar dilution); assay type: cell-based, Proteus vulgaris
Procedure: as §1, §2, §3, §4, §5, §6

[18] = test system: 18 bacteria (27 standard strains); assay: Sensitivity test, combination effect over the standard strains; assay type: cell-based; conditions: in combination with compound 1, standard strains
Procedure: as §1, §2, §3, §5, §6

[19] = test system: E. faecium ATCC19434; assay: Sensitivity test (agar dilution); assay type: cell-based, Enterococcus faecium
Procedure: as §1, §2, §3, §4, §5, §6

[20] = test system: E. faecalis ATCC19433; assay: Sensitivity test (agar dilution); assay type: cell-based, Enterococcus faecalis
Procedure: as §1, §2, §3, §4, §5, §6

[21] = test system: K. pneumoniae ATCC10031; assay: Sensitivity test (agar dilution); assay type: cell-based, Klebsiella pneumoniae
Procedure: as §1, §2, §3, §4, §5, §6

[22] = test system: P. aeruginosa IFO3451; assay: Sensitivity test (agar dilution); assay type: cell-based, Pseudomonas aeruginosa
Procedure: as §1, §2, §3, §4, §5, §6

[23] = test system: P. aeruginosa TL-2666; assay: Sensitivity test (agar dilution); assay type: cell-based, Pseudomonas aeruginosa
Procedure: as §1, §2, §3, §4, §5, §6

[24] = test system: P. aeruginosa TL-2667; assay: Sensitivity test (agar dilution); assay type: cell-based, Pseudomonas aeruginosa
Procedure: as §1, §2, §3, §4, §5, §6

[25] = test system: B. subtilis ATCC6633; assay: Sensitivity test (agar dilution); assay type: cell-based, Bacillus subtilis
Procedure: as §1, §2, §3, §4, §5, §6

[26] = test system: M. luteus ATCC9341; assay: Sensitivity test (agar dilution); assay type: cell-based, Micrococcus luteus
Procedure: as §1, §2, §3, §4, §5, §6

[27] = test system: E. coli ML1410 RP4; assay: microbe, parasite or virus in culture; assay type: cell-based, Escherichia coli; conditions: alone
Procedure: as §1, §2, §3, §4, §5, §6

[28] = test system: S. epidermidis IAM1296; assay: Sensitivity test (agar dilution); assay type: cell-based, Staphylococcus epidermidis
Procedure: as §1, §2, §3, §4, §5, §6

Molecule C[C@@H](O)[C@H]1C(=O)N2C(C(=O)O)=C(SCCN=CN)C[C@H]12 [IPM, imipenem] has an MIC ([1]; Concomitant (IPM:SM = 1:1)) of 0.25 µg/mL, an MIC ([1]; alone) of 0.5 µg/mL and an MIC ([2]; Concomitant (IPM:SM = 1:1)) of 0.125 µg/mL. For the same molecule, the MIC ([2]; alone) was 0.25 µg/mL, the MIC ([3]; Concomitant (IPM:SM = 1:1)) was 0.25 µg/mL and the MIC ([3]; alone) was 0.25 µg/mL. The MIC ([4]; Concomitant (IPM:SM = 1:1)) was “≦0.002 μg/ml”, the MIC ([4]; alone) was 0.008 µg/mL and the MIC ([5]; Concomitant (IPM:SM = 1:1)) was “≦0.002 μg/ml”. For the same molecule, the MIC ([5]; alone) was 0.008 µg/mL, the MIC ([6]; Concomitant (IPM:SM = 1:1)) was “≦0.002 μg/ml” and the MIC ([6]; alone) was “≦0.002 μg/ml”. For the same molecule, the MIC ([7]; Concomitant (IPM:SM = 1:1)) was 0.125 µg/mL, the MIC ([7]; alone) was 0.25 µg/mL and the MIC ([8]; Concomitant (IPM:SM = 1:1)) was 0.25 µg/mL. The MIC ([8]; alone) was 1 µg/mL, the MIC ([9]; Concomitant (IPM:SM = 1:1)) was >32 µg/mL and the MIC ([9]; alone) was >32 µg/mL. For the same molecule, the MIC ([10]; Concomitant (IPM:SM = 1:1)) was 0.125 µg/mL, the MIC ([10]; alone) was 0.125 µg/mL and the MIC ([11]; Concomitant (IPM:SM = 1:1)) was 0.25 µg/mL. The MIC ([11]; alone) was 0.125 µg/mL, the MIC ([12]; Concomitant (IPM:SM = 1:1)) was 0.004 µg/mL and the MIC ([12]; alone) was 0.008 µg/mL. The MIC ([13]; Concomitant (IPM:SM = 1:1)) was 2 µg/mL, the MIC ([13]; alone) was >32 µg/mL and the MIC [14] was 0.25 µg/mL. It also gave an MIC ([15]; Concomitant (IPM:SM = 1:1)) of 0.063 µg/mL, an MIC ([15]; alone) of 0.125 µg/mL and an MIC ([16]; Concomitant (IPM:SM = 1:1)) of 0.5 µg/mL. The MIC ([16]; alone) was 1 µg/mL, the MIC ([17]; Concomitant (IPM:SM = 1:1)) was 0.063 µg/mL and the MIC ([17]; alone) was 1 µg/mL. The combination effect [18] was “the combination effect was recognized”, the MIC ([19]; Concomitant (IPM:SM = 1:1)) was 0.125 µg/mL and the MIC ([19]; alone) was 4 µg/mL. It also gave an MIC ([20]; Concomitant (IPM:SM = 1:1)) of 0.5 µg/mL, an MIC ([20]; alone) of 1 µg/mL and an MIC ([21]; Concomitant (IPM:SM = 1:1)) of 0.031 µg/mL. For the same molecule, the MIC ([21]; alone) was 0.125 µg/mL, the MIC ([22]; Concomitant (IPM:SM = 1:1)) was 0.5 µg/mL and the MIC ([22]; alone) was 1 µg/mL. For the same molecule, the MIC ([23]; Concomitant (IPM:SM = 1:1)) was 1 µg/mL, the MIC ([23]; alone) was 2 µg/mL and the MIC ([24]; Concomitant (IPM:SM = 1:1)) was 8 µg/mL. The MIC ([24]; alone) was 8 µg/mL, the MIC ([25]; Concomitant (IPM:SM = 1:1)) was “≦0.002 μg/ml” and the MIC ([25]; alone) was 0.016 µg/mL. The MIC ([26]; Concomitant (IPM:SM = 1:1)) was 0.004 µg/mL, the MIC ([26]; alone) was 0.024 µg/mL and the MIC [27] was 0.5 µg/mL. The MIC ([28]; Concomitant (IPM:SM = 1:1)) was 0.016 µg/mL and the MIC ([28]; alone) was 0.25 µg/mL.
